We go through four compounds from patent publication US8674115B2, “CRTH2 modulators” (Ironwood Pharmaceuticals, Inc., priority 2009, dated 2014).

Some results are limits rather than exact numbers.

For experiment [1], the target named is T1, CRTH2 (Homo sapiens, UniProt Q9Y5Y4).
T1 sequence (Q9Y5Y4 1-395): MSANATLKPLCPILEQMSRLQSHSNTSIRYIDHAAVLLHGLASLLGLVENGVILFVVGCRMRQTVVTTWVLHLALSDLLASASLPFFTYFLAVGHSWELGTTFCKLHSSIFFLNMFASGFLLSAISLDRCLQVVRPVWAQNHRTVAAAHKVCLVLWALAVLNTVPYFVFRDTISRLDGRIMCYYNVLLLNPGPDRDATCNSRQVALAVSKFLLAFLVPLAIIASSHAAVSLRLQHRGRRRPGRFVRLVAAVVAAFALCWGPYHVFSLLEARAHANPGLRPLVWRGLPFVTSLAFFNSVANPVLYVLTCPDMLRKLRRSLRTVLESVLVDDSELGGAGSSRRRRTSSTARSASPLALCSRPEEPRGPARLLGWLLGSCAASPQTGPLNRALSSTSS
Kind of experiment: DPBS CD11b antagonist assay (CD11b expression in eosinophils). Format: cell-based. The conditions noted are these: challenged with 10 nM 15R-Methyl-PGD2, read-out: CD11b Antag IC50(nM) [HuEos-DPBS-vs10nM15R]. As for the experimental part:
DPBS CD11b Antagonist Assay.
The potential CRTH2 antagonist activity of certain compounds was tested using a CD11b expression assay using essentially the method described by Monneret et al. (J Pharmacol Exp Ther 304:349-55, 2003). Briefly, polymorphonuclear cells (0.5 ml; 10^6/ml cells) in PBS containing 0.9 mM CaCl2 and 0.5 mM MgCl2) were preincubated with various concentrations of test compounds at room temperature for 10 minutes before they were challenged with the agonist 15R-Methyl-PGD2 (10 nM). The incubations were terminated by the addition of ice-cold FACSFlow (BD Biosciences; Cat# 342003) and centrifugation (400 g for 5 minutes at 4° C.). The cells were then incubated for 30 minutes at 4° C. with a mixture of PE-labeled mouse anti-human VLA-4 (5 μl; BD Biosciences) and FITC-labeled mouse anti-human CD11b (10 μl; Beckman Coulter). The cells were then incubated with Optilyse C (0.25 ml; Beckman Coulter) for 15 minutes, centrifuged, and then fixed in PBS (0.4 ml; calcium and magnesium free) containing 1% formaldehyde. The distribution of fluorescence intensities among 60,000 cells was measured by flow cytometry. Eosinophils were gated out on the basis of their granularity (high side scatter) and labeling with VLA-4 (PE fluorescence). CD11b was then measured in the eosinophil region on the basis of fluorescence due to FITC. All data were corrected for the value obtained for the corresponding isotope control antibody.

Experiment [2] has as its target T1, CRTH2. Kind of experiment: Human whole blood CD11b antagonist assay (CD11b expression in eosinophils). Format: cell-based. On the set-up: endogenous in cells; host or cells: eosinophils in human whole blood. The conditions noted are these: challenged with 10 nM 15R-Methyl-PGD2, read-out: CD11b Antag IC50(nM) [HuEos-HuWB-vs10nM15R]. As for the experimental part:
Human Whole Blood CD11B Antagonist Assay (Modified from Nicholson, et al. Pulmonary Pharmacology and Therapeutics: 20 (2007); 52-59).
The potential CRTH2 antagonist activity of certain compounds was tested in human whole blood using an assay that tests the ability of the compounds to block the CD11b expression in eosinophils by 15-R-methyl-PGD2. A CRTH2 antagonist should block CD11b expression by subsequently added 15-Methyl-PGD2. Human whole blood (200 μL) was incubated at 37° C. for 10 minutes in the presence of various concentrations of test compounds before being challenged with the agonist 15R-Methyl-PGD2 (10 nM). Reactions were terminated by the addition of ice-cold PBS+0.5% BSA+2 mMEDTA (1 mL) and centrifugation (300×g for 5 minutes at 4° C.) Cells were then incubated at 4° C. for 10 min in the presence of human IgG. Cells were then incubated for 30-45 min with a mixture of PE-Cy5-labeled mouse anti-human CD16 (10 ul; BD Biosciences) and FITC-labeled mouse anti-human CD11b (10 μL; Beckman Coulter.) After rinsing (1 mL ice-cold PBS+0.5% BSA+2 mMEDTA), red blood cells were lysed by the addition of 1 mL ice-cold H2O to the cell pellet for 30 sec-1 min immediately followed by the addition of 3.5% NaCl (300 μL.) Cells were then rinsed (2×-1 ml ice cold PBS+0.5% BSA+2 mMEDTA) and fixed in PBS containing 1% formaldehyde. The distribution of fluorescence intensities was measured by flow cytometry. Eosinophils were gated out on the basis of their granularity (high side scatter) and absence of CD-16. CD11b was then measured on this eosinophil population on the basis of fluorescence due to FITC.

Turning to `Cc1c(Cc2ccccc2S(=O)(=O)N2CCCC2)c(-c2ccccc2)c(C)n1CC(=O)O` [I-57, 2-(2,5-dimethyl-3-phenyl-4-(2-(pyrrolidin-1-ylsulfonyl)benzyl)-1H-pyrrol-1-yl)acetic acid], the IC50 at CRTH2 [1] was < 5 nM; at CRTH2 [2], 5 to 100 nM.

In the case of `CC(=O)c1c(Cc2ccccc2S(=O)(=O)c2ccccc2)c(C)n(CC(=O)O)c1C` [I-52, 2-(3-acetyl-2,5-dimethyl-4-(2-(phenylsulfonyl)benzyl)-1H-pyrrol-1-yl)acetic acid], the results for the IC50 at CRTH2 [1] and at CRTH2 [2] were < 5 nM and 5 to 100 nM, respectively.

For `CCOC(=O)Cn1c(C)c(C#N)c(Cc2ccccc2S(=O)(=O)N2CCCC2)c1C` [I-63, Ethyl 2-(3-cyano-2,5-dimethyl-4-(2-(pyrrolidin-1-ylsulfonyl)benzyl)-1H-pyrrol-1-yl)acetate], the IC50 on CRTH2 [1] and on CRTH2 [2] was > 500 nM each time.

On to `Cc1c(Cc2ccccc2S(=O)(=O)c2ccccc2)c(C#N)c(-c2ccccc2)n1CC(=O)O` [I-4, 2-(3-cyano-5-methyl-2-phenyl-4-(2-(phenylsulfonyl)benzyl)-1H-pyrrol-1-yl)acetic acid], for which the results for the IC50 at CRTH2 [1] and at CRTH2 [2] were < 5 nM and 5 to 100 nM, respectively.
